Measured values taken from patent US20190091248A1, “AGENT FOR INCREASING INTESTINAL BUTYRIC ACID AND PROLIFERATION AGENT FOR BUTYRIC ACID-PRODUCING BACTERIA” (B FOOD SCIENCE CO., LTD., priority 2016, published 2019).

Legend:
[1] = tested on: obesity induced by high-fat meals; conditions: cited from earlier work
[2] = tested on: childhood diabetes model rat; conditions: intraperitoneal, 500 mg/kg of body weight per day (in terms of the dose of sodium butyrate); cited from earlier work
[3] = tested on: fatty degeneration and inflammation in the liver by the intake of high-fat meals; conditions: oral administration, 0.02 g/kg body weight per day; cited from earlier work
[4] = tested on: ulcerative colitis model rats induced by dextran sulfate sodium (DSS); conditions: injection into the intestine; cited from earlier work
[5] = tested on: LIM1215, human colorectal cancer cells; conditions: final concentration of 1 mmol/L; cited from earlier work
The genus Lactobacillus = assay: Real-time PCR of 16S rDNA copy number in cecal contents upon intake of 1-kestose; format: in vivo, SD rats
Experimental: (§1) The amounts of the following 4 microorganisms in the cecal contents of rats in Groups A and E described in Example 1 (1) were measured by real-time PCR.
3. The genus Lactobacillus
(§2) Specifically, the cecal contents of Groups A and E were disrupted with the bead beating system “FastPrep FP100A” (MP Biomedicals, LLC.). Subsequently, genomic DNA was extracted with the nucleic acid extraction instrument “Magtration® System 12GC” and its exclusive reagent “MagDEA® DNA 200” (Precision System Science Co., Ltd.) according to the instructions. Using this genomic DNA as a template, the real-time PCR was performed with primers specific for the 16S rDNAs of the aforementioned 4 microorganisms, the real-time PCR reagent “SYBR® Premix Ex Taq II (Tli RNaseH Plus)” (Takara), and the real-time PCR device “Rotor-Gene Q” (QIAGEN N.V.) and the copy numbers of the 16S rDNA from each microorganism per 1 g of the cecal contents were determined. The means and standard deviation of the copy numbers were calculated for each group and illustrated in bar graphs.
(§3) The sequences of the primers specific for 16S rDNA of each microorganism are listed below.
(§4) The standard curve was made from the result of real-time PCR for each microorganism under the same conditions using a plasmid DNA in which a part of the following sequence is incorporated as a template.
3. […]

[6] = Food processing and ingredients, Vol. 49, No. 12, p. 9, 2014; cited from earlier work
[7] = tested on: Clostridium cluster-XIVa and Clostridium cluster-XIVb (a group of butyric acid-producing bacteria); assay: Real-time PCR of 16S rDNA copy number in cecal contents upon intake of 1-kestose; format: in vivo, SD rats
Experimental: as §1
2. Clostridium cluster-XIVa and Clostridium cluster-XIVb (a group of butyric acid-producing bacteria),
as §2, §3, §4
2. Clostridium clusters-XIVa and -XIVb (a group of butyric acid-producing bacteria); 16S rDNA sequence (SEQ ID NO: 10) of Clostridium clostridioforme JCM1291T

[8] = tested on: short chain fatty acids in cecal contents; assay: Amount of intestinal short chain fatty acid in cecal contents upon intake of 1-kestose (GC/MS); format: in vivo, SD rats; conditions: for concentration of butyric acid in cecal contents: 30 days ad libitum; for amount of butyric acid in cecal contents: 30 days, calculated from concentration, Group A 781.14 μg
Experimental: (1) Breeding of Rats with Giving Oral Intake of 1-Kestose
The feeds containing 0, 0.5, 1.0, 2.5, and 5% by mass of 1-kestose were prepared by CLEA Japan, Inc. on commission. The composition of the feeds is described below. 40 SD rats (Japan SLC, Inc.) were divided into 5 groups of 8 animals and designated as Groups A to E. The rats were maintained for 30 days with ad libitum feeding of the feed without 1-kestose to Group A and of the ones with 1-kestose to Groups B to E, respectively. The rats were maintained under conditions at 23±1° C. in temperature with 12 hours of light periods (from 8:00 to 20:00) and 12 hours of dark periods (from 20:00 to 8:00).
[Composition (in % by mass) of feeds] Cornstarch 39.7486, milk casein 20, pregelatinized cornstarch 13.2, granulated sugar and/or 1-kestose (99% by mass in purity, B Food Science Co., Ltd.) 10, purified soybean oil 7, cellulose powder 5, mineral mixture 3.5, vitamin mixture 1, L-cystine 0.3, choline bitartrate 0.25, tert-butylhydroquinone 0.0014.
The rats in each group described in Example 1 (1) were dissected and their ceca were extracted. The contents of the ceca were collected and weighed. The concentrations of short chain fatty acids (butyric acid, propionic acid, isobutyric acid, acetic acid, isovaleric acid, and valeric acid) in the cecal contents were measured with a gas chromatography-mass spectrometer (GC/MS). The amounts of the short chain fatty acids in the cecal contents were calculated from the results of the measurement of the short chain fatty acid concentrations. Subsequently, the means of concentrations and amounts of short chain fatty acids for each group were calculated and shown in bar graphs. The results are illustrated in FIGS. 1 to 3.

[9] = tested on: The genus Bifidobacterium; assay: Real-time PCR of 16S rDNA copy number in cecal contents upon intake of 1-kestose; format: in vivo, SD rats; conditions: Group E
Experimental: as §1
1. The genus Bifidobacterium,
as §2, §3, §4
1. […]

Akkermansia muciniphila = assay: as above; format: in vivo, SD rats
Experimental: as §1
4. Akkermansia muciniphila
as §2, §3, §4
4. […]

[10] = Group B: feed with 0.5% by mass 1-kestose
[11] = Group C: feed with 1.0% by mass 1-kestose
[12] = Group D: feed with 2.5% by mass 1-kestose
[13] = Group E: feed with 5% by mass 1-kestose
[14] = Groups B, C, D and E, cecal contents

**Q.** Which “increase of body weight and increase of the body fat percentage” value ([1]; mice fed on high-fat meals into which 5% by mass is mixed) does the source give for `CCCC(=O)[O-].[Na+]` [sodium butyrate] here?
**A.** The value was “suppressed”.

**Q.** Which “function and proliferation of β cells” value [2] does the source give for `CCCC(=O)O` [butyric acid] here?
**A.** The value was “improve”.

**Q.** And the glucose homeostasis [2]?
**A.** Its glucose homeostasis is “improve”.

**Q.** And the β cell death [2]?
**A.** The β cell death was “decrease”.

**Q.** What about the “fatty degeneration and inflammation in the liver by the intake of high-fat meals” value [3] of the same compound?
**A.** Its value is “suppress”.

**Q.** And the “values of AST, ALT, cholesterol, LDL in blood, neutral fat and fasting blood sugar levels, and insulin resistance index (HOMA-IR)” value [3]?
**A.** Its value is “normalize”.

**Q.** What about the “body weight and the body fat percentage” value ([1]; oral, 5 g/kg body weight per day (in terms of sodium butyrate), mice in which obesity has been induced by high-fat meals) of the same compound?
**A.** The value was “reduce”.

**Q.** And the “weight gain and increase of the body fat percentage by eating of high-fat meals” value ([1]; oral, 5 g/kg body weight per day (in terms of sodium butyrate), mice that are not obese)?
**A.** The value was “suppress”.

**Q.** What about the inflammatory repair effect [4] of the same compound?
**A.** Its inflammatory repair effect is “significant inflammatory repair effect”.

**Q.** And the proliferation rate [5]?
**A.** Its proliferation rate is “decrease”.

**Q.** And the proliferation time [5]?
**A.** Its proliferation time is “extend”.

**Q.** Which “copy number of 16S rDNA from Lactobacillus, Group E versus Group A” value (The genus Lactobacillus) does the source give for `OC[C@H]1O[C@@](CO)(OC[C@@]2(O[C@H]3O[C@H](CO)[C@@H](O)[C@H](O)[C@H]3O)O[C@H](CO)[C@@H](O)[C@@H]2O)[C@@H](O)[C@@H]1O` [1-kestose] here?
**A.** The value was “did not have significant difference”.

**Q.** And the “toxicity in mutagenicity, acute toxicity, subchronic toxicity, and chronic toxicity tests” value [6]?
**A.** Its value is “no toxicity”.

**Q.** And the “copy number of 16S rDNA from the group of butyric acid-producing bacteria relative to Group A” value ([7]; Group E)?
**A.** Its value is “approximately 5 times of that in Group A”.

**Q.** And the “copy number of 16S rDNA from the group of butyric acid-producing bacteria, comparison with Group A in words” value ([7]; Group E)?
**A.** The value was “significantly increased”.

**Q.** What about the “copy number of 16S rDNA from Clostridium cluster XIV (a group of butyric acid-producing bacteria)” value ([7]; Group E (5% by mass 1-kestose in feed, 30 days), Group A 5071250000) of the same compound?
**A.** The value was 25287500000 per 1 g of the cecal contents.

**Q.** And the “increase of butyric acid amount relative to Group A” value [8, 10]?
**A.** The value was “approximately 1.4 times of that in Group A”.

**Q.** And the “increase of butyric acid concentration relative to Group A” value [8, 10]?
**A.** The value was “approximately 1.4 times of that in Group A”.

**Q.** What about the “concentration of butyric acid in cecal contents” value (shortened to “concentration of butyric acid”) ([8]; Group B: feed with 0.5% by mass 1-kestose, daily intake 0.27 g/kg body weight, Group A (no 1-kestose) 205.86 μg/g) of the same compound?
**A.** Its value is 288.09 µg/g.

**Q.** And the “amount of butyric acid in cecal contents” value [8, 10]?
**A.** Its value is 1069.37 µg.

**Q.** And the “increase of butyric acid amount relative to Group A” value [8, 11]?
**A.** The value was “approximately 1.4 times of that in Group A”.

**Q.** And the “increase of butyric acid concentration relative to Group A” value [8, 11]?
**A.** The value was “approximately 1.5 times of that in Group A”.

**Q.** What about the “concentration of butyric acid” value ([8]; Group C: feed with 1.0% by mass 1-kestose, Group A 205.86 μg/g) of the same compound?
**A.** The value was 314.59 µg/g.

**Q.** And the “amount of butyric acid in cecal contents” value [8, 11]?
**A.** The value was 1107.92 µg.

**Q.** And the “increase of butyric acid amount relative to Group A” value [8, 12]?
**A.** The value was “approximately 3.6 times of that in Group A”.

**Q.** And the “increase of butyric acid concentration relative to Group A” value [8, 12]?
**A.** The value was “approximately 3.7 times of that in Group A”.

**Q.** What about the “concentration of butyric acid” value ([8]; Group D: feed with 2.5% by mass 1-kestose, Group A 205.86 μg/g) of the same compound?
**A.** Its value is 754.17 µg/g.

**Q.** And the “amount of butyric acid in cecal contents” value [8, 12]?
**A.** The value was 2891.65 µg.

**Q.** What about the “increase of butyric acid amount relative to Group A” value [8, 13] of the same compound?
**A.** The value was “approximately 14.5 times of that in Group A”.

**Q.** What about the “increase of butyric acid concentration relative to Group A” value [8, 13] of the same compound?
**A.** The value was “approximately 10 times of that in Group A”.

**Q.** And the “concentration of butyric acid” value ([8]; Group E: feed with 5% by mass 1-kestose, 1.34 g/kg body weight, Group A 205.86 μg/g)?
**A.** The value was 2005.26 µg/g.

**Q.** And the “amount of butyric acid in cecal contents” value [8, 13]?
**A.** Its value is 11943.88 µg.

**Q.** And the “concentrations and amounts of acetic acid in comparison with Group A” value [8, 14]?
**A.** The value was “significantly increased”.

**Q.** And the “concentrations and amounts of isobutyric acid in comparison with Group A” value [8, 14]?
**A.** The value was “significantly decreased”.

**Q.** And the “concentrations and amounts of isovaleric acid in comparison with Group A” value [8, 14]?
**A.** The value was “not significantly different”.

**Q.** And the “concentrations and amounts of propionic acid in comparison with Group A” value [8, 14]?
**A.** Its value is “not significantly different”.

**Q.** And the “concentrations and amounts of valeric acid in comparison with Group A” value [8, 14]?
**A.** The value was “significantly decreased”.

**Q.** And the “concentrations and amounts of butyric acid in comparison with Group A” value ([8]; any of Groups B to E (0.5 to 5% by mass 1-kestose in feed))?
**A.** Its value is “markedly increased”.

**Q.** And the “copy number of 16S rDNA from the genus Bifidobacterium in comparison with Group A” value [9]?
**A.** Its value is “significantly increased”.

**Q.** And the “copy number of 16S rDNA from Akkermansia muciniphila, Group E versus Group A” value (Akkermansia muciniphila)?
**A.** Its value is “did not have significant difference”.
